Series [1] deals with T1, Recombinant human somatic ACE (sACE-1) (Homo sapiens, UniProt P12821).
T1 construct: sACE-1: Leu30-Leu1261, with C-terminal His tag; His tag (C); purchased R&D Systems; host or cells: NS0-derived murine myeloma cell line
The experiment in a line: Time-dependent inactivation of sACE-1. The series is classed as biochemical. The settings on record: pH 7.4, 37° C. The method, then: Time-Dependent Inactivation of sACE-1. sACE-1 and each M-chelate-lisinopril complex (prepared in the absence of Zn^2+) were preincubated for 20 min at 37° C. in a buffer containing 50 mM HEPES, 300 mM NaCl, 10 μM ZnCl2, 0.05% Brij35, pH 7.4, and after 20 min, coreactants ascorbate and/or H2O2 (or no coreactants) were added to initiate each reaction. Reaction concentrations were 1 nM sACE-1, a concentration of M-chelate-lisinopril that gave approximately 80% activity (calculated by use of equation (1), where A=80%; concentrations listed in the table in paragraph [00132]), and 1 mM ascorbate and/or H2O2 (or no coreactants). Each time-dependent ACE-inactivation reaction proceeded at 37° C. for a period of 2 h, and at each specific intervening time point, a 68.6 μL, aliquot of the reaction mixture containing sACE-1 was mixed with 1.4 μL of 0.5 mM fluorogenic substrate in a fluorescence cuvette. Substrate cleavage by sACE-1 was immediately monitored by real-time fluorimetry at 37° C., with excitation at 320 nm and emission at 405 nm. Initial rates were determined for each time point for the time-dependent inactivation of sACE-1, and these initial rates were expressed as a percentage (% maximal activity) of the average of several initial rates for uninhibited substrate cleavage by sACE-1, determined in the absence of both M-chelate-lisinopril complexes and coreactants. Plots of % maximal activity vs. time were fit to a first-order exponential decay model, and initial rates of inactivation of sACE-1 by M-chelate-lisinopril complexes were determined. Second-order rate constants for inactivation of sACE-1 were obtained using equation (2), where k2 is the second-order rate constant (M^−1 min^−1), R is the initial rate of enzyme inactivation (M/min) after subtraction of the corresponding background rate in the absence of M-chelate-lisinopril complex, but with the same coreactants, [I] is the concentration of M-chelate-lisinopril complex used (M), and [E] is the concentration of sACE-1 used (1×10^−9 M). Control experiments with M-chelate complexes lacking attached lisinopril were performed in the same manner and conditions used for the respective M-chelate-lisinopril complexes.

The target of series [2] is T1, Recombinant human somatic ACE (sACE-1). As to the kind of experiment: Determination of IC50 values, sACE-1 fluorogenic substrate cleavage. In kind it is biochemical.
The subject of another series is pUC19 plasmid DNA. As to the kind of experiment: DNA nicking and linearization nuclease assay. The following applies: 10 μM base pairs pUC19; ascorbate/peroxide; — = Below detection limit. The series is classed as biochemical.
The target in the next series is T2, full length sACE-1 (Homo sapiens, UniProt P12821).
T2 construct: sACE-1: Leu30-Leu1261, with C-terminal His tag; His tag (C); purchased R&D Systems; host or cells: NS0-derived murine myeloma cell line
The experiment in a line: Cleavage of full length sACE-1 monitored by SDS-PAGE. The series is classed as biochemical. The following applies: Ascorbate, pH 7.4, 37° C.

Series [3] deals with stem loop IIb HCV IRES RNA. The series is classed as biochemical, hepatitis C virus (HCV). The following applies: cleavage of stem-loop IIb; 100 nM catalyst, 1 mM ascorbate, 1 mM H2O2. The method, then: (§1) HCV IRES RNA cleavage was monitored in vitro by fluorescence using 5′ fluorescein end-labeled RNA with excitation and emission wavelengths of 485 nm and 518 nm, respectively. Reactions were carried out in reaction volumes of 100 μl in the presence of 1 mM ascorbate and 1 mM H2O2 in 20 mM HEPES buffer (pH=7.4), 100 mM NaCl with 100 nM of the catalyst and analyzed according to the change in fluorescence observed as the reaction occurred. Both a time-dependence and a concentration-dependence of RNA substrate were observed. The initial velocities were fit to a line using Origin 7.0 software and kobs obtained. These values were then used to obtain the Michaelis-Menten parameters.
The reactivity of select catalytic metallodrugs was investigated by Michaelis-Menten profiles. Reaction chemistry was followed by monitoring the fluorescence change of 5′-fluorescein-labeled RNA as a function of time. Initial velocities were measured as a function of substrate (RNA) concentration to generate a standard Michaelis-Menten plot (FIG. 2).

Series [4] concerns stem loop IV HCV IRES RNA. In kind it is biochemical, hepatitis C virus (HCV). The settings on record: cleavage of stem loop IV; 100 nM catalyst, 1 mM ascorbate, 1 mM H2O2. The method, then: as §1
Series [5] has as its system stem-loop IIb of HCV IRES RNA. In kind it is binding, hepatitis C virus (HCV). The following applies: stem-loop IIb. As to the method:
(§2) RNA was purchased from Dharmacon, part of Thermo Fisher Scientific (Lafayette, Colo.). Peptides were purchased from Genemed Synthesis Inc (South San Francisco, Calif.) with C-terminal amidation. The stem-loop (SL) structure (from Lytle et al., RNA 13: 539-48, 2002) is depicted in FIG. 6. The sequence for the IRES SL IIb RNA used was 5′-Fluorescein-[…]-3′, and for the IRES SL IV RNA was 5′-Fluorescein-[…]-3′. All RNA was annealed by heating to 95° C. and then cooled slowly to room temperature before use.
(§3) RNA binding experiments were performed in the presence of 84 nM GGHYrFK-amide in 20 mM HEPES (pH 7.4), 100 mM NaCl. For GGHYrFK-amide, serial additions of unlabeled IRES RNA were added and tyrosine emission was monitored (λex=280 nm, λem=313 nm). Binding data for GGHYr[…]-amide and GGHYr[…]-amide were obtained by adding serial additions of peptide to 5′-fluorescein labeled IRES SLIIb and monitoring at 518 nm (Ex=485 nm). Data was then fit to a one-site binding model.

Series [6] has as its system stem loop IV HCV IRES RNA. In kind it is binding, hepatitis C virus (HCV). The method, then:
as §2, §3

In the next series the target is HCV protease (Hepatitis C virus genotype 1a, UniProt P27958). The settings on record: cited from earlier work.

pIC50, pKd, pKi: −log10 of the molar value. Read-outs that look alike come from different tables or passages of the source. Where a SMILES comes first, the peptide text is derived from it. Where no end group is shown, it is not given here. [ ]: non-standard residue; d: D form. The star is where a group is joined. X1 = COCCOCCOCCOCCOCCOCCOCCOCCOCCOCCOCCOCCOCCOCCOCCOCCOCCOCCOCCOCCOCCOCCOCCOCCNC(=O)CCN1C(=O)CC(*)C1=O

Here are results for seven molecules from patent US20140377289A1, “Metallodrugs Having Improved Pharmacological Properties, and Methods of Manufacture and Use Thereof” (MetalloPharm, LLC, priority 2011, published 2014).

For orientation: pIC50 means the negative decadic logarithm of the IC50, by convention in mol/L. A word on the pKd: it is the Kd on a negative log10 scale, so that one unit is a factor of ten. Read a low pKd as a large Kd. The term pKi denotes −log10 of the Ki, conventionally taken in molar units.

T1 sequence (P12821 30-1261): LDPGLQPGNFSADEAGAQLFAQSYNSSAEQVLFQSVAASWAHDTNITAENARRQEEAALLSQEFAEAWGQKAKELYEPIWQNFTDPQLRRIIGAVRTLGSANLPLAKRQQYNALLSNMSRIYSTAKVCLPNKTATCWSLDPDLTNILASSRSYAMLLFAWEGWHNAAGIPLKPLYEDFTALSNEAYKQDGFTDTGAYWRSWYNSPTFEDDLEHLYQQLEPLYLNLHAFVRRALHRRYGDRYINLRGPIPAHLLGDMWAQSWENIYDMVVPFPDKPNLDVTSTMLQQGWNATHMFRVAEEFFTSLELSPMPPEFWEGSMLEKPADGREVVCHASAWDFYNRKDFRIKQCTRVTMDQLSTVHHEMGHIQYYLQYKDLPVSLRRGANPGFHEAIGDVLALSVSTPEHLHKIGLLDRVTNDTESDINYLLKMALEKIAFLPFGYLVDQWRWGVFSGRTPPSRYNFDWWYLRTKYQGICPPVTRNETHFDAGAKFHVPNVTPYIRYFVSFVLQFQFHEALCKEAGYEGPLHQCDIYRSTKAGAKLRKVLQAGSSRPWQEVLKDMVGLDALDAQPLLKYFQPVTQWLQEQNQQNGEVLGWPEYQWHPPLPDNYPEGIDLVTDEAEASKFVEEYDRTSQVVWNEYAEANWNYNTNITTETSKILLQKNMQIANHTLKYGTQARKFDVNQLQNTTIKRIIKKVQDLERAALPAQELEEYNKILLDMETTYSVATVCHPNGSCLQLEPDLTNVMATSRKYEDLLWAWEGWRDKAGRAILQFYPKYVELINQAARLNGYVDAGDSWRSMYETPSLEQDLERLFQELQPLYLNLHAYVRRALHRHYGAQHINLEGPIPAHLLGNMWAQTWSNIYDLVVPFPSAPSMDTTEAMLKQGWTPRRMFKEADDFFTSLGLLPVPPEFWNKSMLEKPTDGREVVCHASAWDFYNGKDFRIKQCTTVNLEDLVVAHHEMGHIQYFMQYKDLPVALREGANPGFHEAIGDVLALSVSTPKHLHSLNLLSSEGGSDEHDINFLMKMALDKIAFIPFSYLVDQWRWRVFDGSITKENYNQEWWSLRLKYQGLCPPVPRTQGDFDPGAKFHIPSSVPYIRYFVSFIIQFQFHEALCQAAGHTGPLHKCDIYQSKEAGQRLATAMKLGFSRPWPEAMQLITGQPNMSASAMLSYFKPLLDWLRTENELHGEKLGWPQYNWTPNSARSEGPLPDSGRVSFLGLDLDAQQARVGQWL
Sequence of HCV protease (P27958 1027-1208, other chains not shown): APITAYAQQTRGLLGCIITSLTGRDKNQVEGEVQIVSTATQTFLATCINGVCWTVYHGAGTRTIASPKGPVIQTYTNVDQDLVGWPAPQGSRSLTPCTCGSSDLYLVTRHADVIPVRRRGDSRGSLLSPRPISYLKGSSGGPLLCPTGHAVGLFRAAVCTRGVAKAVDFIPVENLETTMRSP
T2 sequence (P12821 30-1261): as the sequence (P12821 30-1261) above

The molecule `COCCOCCOCCOCCOCCOCCOCCOCCOCCOCCOCCOCCOCCOCCOCCOCCOCCOCCOCCOCCOCCOCCOCCOCCNC(=O)CCN1C(=O)CC(SC[C@H](NC(=O)CNC(=O)CNC(=O)[C@H](CCCCN)NC(=O)[C@H](Cc2ccccc2)NC(=O)[C@@H](CCCNC(=N)N)NC(=O)[C@H](Cc2ccc(O)cc2)NC(=O)CNC(=O)[C@H](Cc2c[nH]cn2)NC(=O)CNC(=O)CN)C(N)=O)C1=O` (stereo partly shown) [Cu-GGHGYrFKGGC-PEG24] (H-GGHGY[dR]FKGGC(X1)-NH2) had a CC50 of over 50 µM.
Same read-out and setting: the result for `COCCOCCOCCOCCOCCOCCOCCOCCOCCOCCOCCOCCOCCOCCOCCOCCOCCOCCOCCOCCOCCOCCOCCOCCOCCOCCOCCOCCOCCOCCOCCOCCOCCOCCOCCOCCOCCOCCOCCOCCOCCOCCOCCOCCOCCOCCOCCOCCNC(=O)CCN1C(=O)CC(SC[C@H](NC(=O)CNC(=O)CNC(=O)[C@H](CCCCN)NC(=O)[C@H](Cc2ccccc2)NC(=O)[C@@H](CCCNC(=N)N)NC(=O)[C@H](Cc2ccc(O)cc2)NC(=O)CNC(=O)[C@H](Cc2c[nH]cn2)NC(=O)CNC(=O)CN)C(N)=O)C1=O` (stereo partly shown) [Cu-GGHGYrFKGGC-PEG48] reads over 50 µM.
With `NCC(=O)NCC(=O)N[C@@H](Cc1c[nH]cn1)C(=O)O` [Cu-GGH] (H-Gly-Gly-His-OH), the kinact/KI in series [1] (pH 7.4, read-out: Second order rate constant for inactivation of sACE-1, M-chelate without lisinopril, Ascorbate + H2O2) is 167 M⁻¹ s⁻¹; in series [1] (pH 7.4, read-out: Second order rate constant for inactivation of sACE-1, M-chelate without lisinopril, Ascorbate) it was under 16.7 M⁻¹ s⁻¹; in [1] (pH 7.4, read-out: Second order rate constant for inactivation of sACE-1, M-chelate without lisinopril, H2O2) it was under 33.3 M⁻¹ s⁻¹. For the same molecule, the pIC50 in series [2] was 4.77. In the series with pUC19 plasmid DNA, the “klin for DNA linearization, without attached Rev (M-chelate)” value amounted to 0.0012 ± 0.0002 min⁻¹. For the same molecule, the “knick for DNA nicking, without attached Rev (M-chelate)” value in the series on pUC19 plasmid DNA worked out at 0.06 ± 0.01 min⁻¹.
For the molecule `O=C([O-])CN(CCN(CC(=O)[O-])CC(=O)[O-])CC(=O)[O-].[Fe+3]` [Fe-EDTA], the “Second order rate constant for cleavage of full length sACE-1 (in brackets), M-chelate without lisinopril” value at full length sACE-1 is reported as “{<100,000} M^−1min^−1”. Also, the “Second order rate constant for inactivation of sACE-1, M-chelate without lisinopril” value in series [1] (Ascorbate) is on record as 10,000 ± 50,000 M^−1min^−1. Besides, in the series on pUC19 plasmid DNA, the “klin for DNA linearization, without attached Rev (M-chelate)” value was found to be 0.0005 ± 0.0001 min⁻¹ and the “knick for DNA nicking, without attached Rev (M-chelate)” value stood at 0.044 ± 0.009 min⁻¹.
In the case of Cu-GGHKYKETDLLILFKDDYFAKKNEERK-amide, the Vmax in series [3] came out at 13.96 RFU/min; in series [4], 2.0 RFU/min. Further, the results for the KA in series [5] and in series [6] were 556000 M⁻¹ and 143000 M⁻¹, respectively. For the same molecule, the negative logarithm of the Kd (pKd) in [5] was 5.74; in [6] it was 5.15.
As for “Cu-GGHYRFK-amide (GGHYRFK-NH2; also: Cu complex)”, the values for the Vmax in [3] and in series [4] were 3.96 RFU/min and 0.95 RFU/min, respectively. Also, the KA in [5] and in series [6] was 145000 M⁻¹ throughout. Besides, the pKd in series [5] and in [6] was 5.16 throughout.
On to DDIVPC [Asp-Asp-Ile-Val-Pro-Cys], for which the pKi at HCV protease was 4.10.
